Test [1] deals with TLR7 (Homo sapiens (Human), UniProt Q9NYK1). Nature of the test: TLR7 human peripheral blood mononuclear cell (PBMC) cell-based assay (GS-986 as agonist; IL-6 and IFNα readout). To be noted: TLR7 agonist GS-986 at 400 nM, 6 hours, antagonist potency. The gist of the method:
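Human PBMCs (100,000 cells/well) preincubated 1 h at 37 °C with antagonist in 10-point dose response, then stimulated with TLR7 agonist for a further 6 h at 37 °C, 5% CO2. Supernatant IL-6 and IFNα measured by electrochemiluminescence immunoassay.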

For test [2], the target named is TLR8 (Homo sapiens (Human), UniProt Q9NR97). Nature of the test: TLR8 human peripheral blood mononuclear cell (PBMC) cell-based assay (Compound A as agonist; TNFα and IL12p40 readout). As to conditions: TLR8 agonist Compound A at 800 nM, 6 hours, antagonist potency.
The mark [3] stands for this setting: human PBMCs, read-out: TLR-7 EC50.
[4] abbreviates: human PBMCs, read-out: TLR-8 EC50.

One may read the EC50 as the concentration giving half of the maximal effect.

Like-named read-outs stand apart in the source and are kept apart here.

Sequence of TLR8 (Q9NR97 27-1041): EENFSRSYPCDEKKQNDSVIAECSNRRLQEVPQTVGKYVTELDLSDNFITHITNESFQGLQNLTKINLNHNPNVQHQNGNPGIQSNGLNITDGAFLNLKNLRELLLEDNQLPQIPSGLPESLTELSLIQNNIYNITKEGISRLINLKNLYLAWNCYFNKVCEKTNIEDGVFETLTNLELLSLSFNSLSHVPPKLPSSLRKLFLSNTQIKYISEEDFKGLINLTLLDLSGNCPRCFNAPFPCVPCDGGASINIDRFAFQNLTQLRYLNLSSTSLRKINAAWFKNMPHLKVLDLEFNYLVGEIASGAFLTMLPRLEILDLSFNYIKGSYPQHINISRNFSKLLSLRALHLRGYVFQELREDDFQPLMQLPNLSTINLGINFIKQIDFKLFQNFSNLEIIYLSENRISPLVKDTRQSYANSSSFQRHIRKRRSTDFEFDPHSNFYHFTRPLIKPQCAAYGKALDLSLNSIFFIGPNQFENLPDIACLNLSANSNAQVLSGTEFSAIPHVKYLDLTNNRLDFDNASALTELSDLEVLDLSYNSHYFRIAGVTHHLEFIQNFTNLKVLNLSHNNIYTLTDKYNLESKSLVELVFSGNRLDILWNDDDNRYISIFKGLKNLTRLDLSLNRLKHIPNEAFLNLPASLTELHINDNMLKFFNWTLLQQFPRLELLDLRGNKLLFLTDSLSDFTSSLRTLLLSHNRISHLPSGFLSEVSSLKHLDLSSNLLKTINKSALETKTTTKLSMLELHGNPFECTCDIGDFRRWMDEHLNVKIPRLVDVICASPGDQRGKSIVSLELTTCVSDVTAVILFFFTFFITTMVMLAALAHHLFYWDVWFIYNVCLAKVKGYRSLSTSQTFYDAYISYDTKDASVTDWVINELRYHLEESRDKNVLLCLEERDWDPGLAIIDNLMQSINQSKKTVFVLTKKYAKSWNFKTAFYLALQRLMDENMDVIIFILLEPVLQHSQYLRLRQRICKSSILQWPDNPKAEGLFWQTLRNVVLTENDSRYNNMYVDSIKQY
Sequence of TLR7 (Q9NYK1 27-1049): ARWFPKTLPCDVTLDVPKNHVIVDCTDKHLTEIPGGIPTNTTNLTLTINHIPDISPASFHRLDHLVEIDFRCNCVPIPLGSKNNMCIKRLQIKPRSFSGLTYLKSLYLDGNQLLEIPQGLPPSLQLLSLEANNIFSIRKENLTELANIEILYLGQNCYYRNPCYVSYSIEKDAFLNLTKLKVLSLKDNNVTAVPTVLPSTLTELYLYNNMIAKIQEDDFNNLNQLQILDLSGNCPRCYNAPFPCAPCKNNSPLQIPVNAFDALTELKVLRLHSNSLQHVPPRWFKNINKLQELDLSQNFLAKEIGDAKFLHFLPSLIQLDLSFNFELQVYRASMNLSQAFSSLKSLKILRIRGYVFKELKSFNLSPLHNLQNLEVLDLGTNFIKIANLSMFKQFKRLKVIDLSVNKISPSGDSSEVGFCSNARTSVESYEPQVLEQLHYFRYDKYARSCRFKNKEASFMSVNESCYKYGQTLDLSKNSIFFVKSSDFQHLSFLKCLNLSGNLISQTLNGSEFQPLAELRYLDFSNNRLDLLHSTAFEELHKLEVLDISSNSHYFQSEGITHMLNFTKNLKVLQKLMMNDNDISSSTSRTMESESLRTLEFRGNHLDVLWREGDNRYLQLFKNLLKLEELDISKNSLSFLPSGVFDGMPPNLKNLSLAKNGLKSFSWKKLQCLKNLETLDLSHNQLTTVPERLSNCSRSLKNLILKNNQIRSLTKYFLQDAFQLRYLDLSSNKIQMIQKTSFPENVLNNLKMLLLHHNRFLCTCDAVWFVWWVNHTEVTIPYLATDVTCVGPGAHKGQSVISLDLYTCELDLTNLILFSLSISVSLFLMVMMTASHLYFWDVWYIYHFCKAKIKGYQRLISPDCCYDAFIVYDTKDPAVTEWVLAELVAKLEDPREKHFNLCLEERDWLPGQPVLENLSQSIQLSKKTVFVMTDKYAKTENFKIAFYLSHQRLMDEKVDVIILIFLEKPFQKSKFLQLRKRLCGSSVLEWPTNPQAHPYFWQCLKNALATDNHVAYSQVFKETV

On to `Cc1c(CCC2CCN(CC(N)=O)CC2)sc2[nH]c(-c3cc(C)c4ncnn4c3)c(C(C)C)c12` [Example 203], for which the EC50 in test [1] (setting [3]) was determined as 4.2 nM; in test [2] (setting [4]) it was 6.23 nM.
Turning to `Cc1c(C23CCNCC2C3(F)F)sc2[nH]c(-c3cc(C)c4ncnn4c3)c(C(C)C)c12` (stereo not shown) [Example 204], the results for the EC50 in test [1] (setting [3]) and in test [2] (setting [4]) were 0.5 nM and 30.4 nM, respectively.
For `Cc1c(C23CCN(CC(N)=O)CC2C3(F)F)sc2[nH]c(-c3cc(C)c4ncnn4c3)c(C(C)C)c12` (stereo not shown) [Example 205] the same measures were 0.6 nM and 230 nM.
As to `CCc1c(C2CCN(CC(N)=O)CC2)sc2[nH]c(-c3cc(C)c4ncnn4c3)c(C(C)C)c12` [Example 206], the EC50 was 0.18 nM in test [1] (setting [3]) and 45.1 nM in test [2] (setting [4]).
Consider `CCc1c(C2CCN(C(=O)[C@@H]3COCCN3)CC2)sc2[nH]c(-c3cc(C)c4ncnn4c3)c(C(C)C)c12` [Example 207], for which the EC50 in test [1] (setting [3]) was found to be 0.19 nM; in test [2] (setting [4]), 32.2 nM.
In the same order, the values of `CCc1c(C2CCN(C(=O)[C@H]3COCCN3)CC2)sc2[nH]c(-c3cc(C)c4ncnn4c3)c(C(C)C)c12` [Example 208] are 0.15 nM and 34.6 nM.
In the same order, the values of `Cc1c(C2CC23CCNCC3)sc2[nH]c(-c3cc(C)c4ncnn4c3)c(C(C)C)c12` (stereo not shown) [Example 209] are 0.94 nM and 10.7 nM.
Consider `Cc1c(CC2CCN(CC(N)=O)CC2)sc2[nH]c(-c3cc(C)c4ncnn4c3)c(C(C)C)c12` [Example 210], for which the EC50 in test [1] (setting [3]) was determined as 2.32 nM; in test [2] (setting [4]), 10 nM.
For `Cc1c(C2CC23CCN(CC(N)=O)CC3)sc2[nH]c(-c3cc(C)c4ncnn4c3)c(C(C)C)c12` (stereo not shown) [Example 211] the same measures were 5.08 nM and 30.9 nM.
In the same order, the values of `Cc1c(-c2[nH]c3sc(C45CCN(CCS(C)(=O)=O)CC4C5)c(C)c3c2C(C)C)cn2ncnc2c1C` (stereo not shown) [Example 217] are 1.27 nM and 78.6 nM.
For `Cc1c(-c2[nH]c3sc([C@@H]4C[C@@H]5C[C@H]4CN5CCS(C)(=O)=O)cc3c2C(C)C)cn2ncnc2c1C` [Example 218] the same measures were 0.45 nM and 0.88 nM.
Turning to `Cc1c(-c2[nH]c3sc(C4CCNCC4)cc3c2C(C)C)cn2ncnc2c1C` [Example 219], the EC50 in test [1] (setting [3]) is 0.26 nM; in test [2] (setting [4]), 3.01 nM.
For `Cc1c(-c2[nH]c3sc([C@@H]4C[C@@H]5C[C@H]4CN5)cc3c2C(C)C)cn2ncnc2c1C` [Example 220] the same measures were 0.11 nM and 0.64 nM.
In the same order, the values of `Cc1c(-c2[nH]c3sc(-c4cccc(C5CCNCC5)c4)c(C)c3c2C(C)C)cn2ncnc2c1C` [Example 222] are 8.47 nM and 79.3 nM.
In the same order, the values of `Cc1c(-c2[nH]c3sc(-c4cccc(C5CCN(CC(N)=O)CC5)c4)c(C)c3c2C(C)C)cn2ncnc2c1C` [Example 223] are 15.5 nM and 66.5 nM.
Consider `Cc1c(-c2[nH]c3sc(-c4cnc(C5CCNCC5)nc4)c(C)c3c2C(C)C)cn2ncnc2c1C` [Example 224], for which the EC50 was 1.24 nM in test [1] (setting [3]) and 3.68 nM in test [2] (setting [4]).
As for `Cc1c(-c2[nH]c3sc(C4C[C@H]5CC[C@@H]4N5)c(C)c3c2C(C)C)cn2ncnc2c1C` (stereo partly shown) [Example 225], the EC50 in test [1] (TLR-7 EC50, human PBMCs) was 0.47 nM; in test [2] (TLR-8 EC50, human PBMCs), 6.12 nM.
Turning to `Cc1c(-c2[nH]c3sc(-c4cnc(C5CCN(CC(N)=O)CC5)nc4)c(C)c3c2C(C)C)cn2ncnc2c1C` [Example 226], the EC50 in test [1] (setting [3]) came out at 4.14 nM; in test [2] (setting [4]), 1 nM.
Regarding `Cc1c(-c2[nH]c3sc(C4C[C@H]5CC[C@@H]4N5CC(N)=O)c(C)c3c2C(C)C)cn2ncnc2c1C` (stereo partly shown) [Example 227], the EC50 in test [1] (TLR-7 EC50, human PBMCs) stood at 5.07 nM; in test [2] (TLR-8 EC50, human PBMCs), 15.5 nM.
Consider `Cc1c(-c2[nH]c3sc(C4CCC45CNC5)c(C)c3c2C(C)C)cn2ncnc2c1C` (stereo not shown) [Example 228, 5-(7,8-dimethyl-[1,2,4]triazolo[1,5-a]pyridin-6-yl)-4-isopropyl-3-methyl-2-(2-azaspiro[3.3]heptan-5-yl)-6H-thieno[2,3-b]pyrrole], for which the EC50 in test [1] (setting [3]) came out at 8.77 nM; in test [2] (setting [4]), 76.2 nM.
For `Cc1c(C2CCN(CC(N)=O)CC2)sc2[nH]c(-c3ccc(C#N)c4ncccc34)c(C(C)C)c12` [Example 230] the same measures were 0.81 nM and 14 nM.
For `Cc1c(C2CCN(CC(N)=O)CC2)sc2[nH]c(C3=NC(C)c4ncccc43)c(C(C)C)c12` (stereo not shown) [Example 232] the same measures were 0.83 nM and 18.8 nM.
In the same order, the values of `Cc1cc(-c2[nH]c3sc(C4CCN(CC(N)=O)CC4)c(C)c3c2C(C)C)cn(C)c1=O` [Example 234] are 4.25 nM and 10.6 nM.
For `Cc1cc2ncnn2cc1-c1[nH]c2sc(C3CCN(CC(N)=O)CC3)c(C)c2c1C(C)C` [Example 235], the EC50 was 10.1 nM in test [1] (setting [3]) and 48.8 nM in test [2] (setting [4]).
For `Cc1c(C2CCN(CC(N)=O)CC2)sc2[nH]c(-c3cc(C)c4nnnn4c3)c(C(C)C)c12` [Example 236] the same measures were 1.94 nM and 21.8 nM.
In the same order, the values of `Cc1c(C2CCN(CC(N)=O)CC2)sc2[nH]c(-c3cc(C)c4nccn4c3)c(C(C)C)c12` [Example 237] are 0.29 nM and 69.3 nM.
For `COc1cc(-c2[nH]c3sc(C4CCNCC4)c(C)c3c2C(C)C)cn2ncnc12` [Example 246, 4-isopropyl-5-(8-methoxy-[1,2,4]triazolo[1,5-a]pyridin-6-yl)-3-methyl-2-(piperidin-4-yl)-6H-thieno[2,3-b]pyrrole] the same measures were 0.09 nM and 8.94 nM.
In the case of `Cc1c(C2CCNCC2)sc2[nH]c(-c3ccc(C#N)c4ncccc34)c(C(C)C)c12` [Example 247], the EC50 in test [1] (setting [3]) turned out to be 0.2 nM; in test [2] (setting [4]) it was 13.5 nM.
For `Cc1c(C2CCNCC2)sc2[nH]c(-c3ccc(C#N)c4nccnc34)c(C(C)C)c12` [Example 248] the same measures were 11.5 nM and 106 nM.
For `Cc1c(C2CCNCC2)sc2[nH]c(-c3cn(C)c4ncccc34)c(C(C)C)c12` [Example 249], the EC50 was 0.32 nM in test [1] (setting [3]) and 3.02 nM in test [2] (setting [4]).
As for `Cc1cc(-c2[nH]c3sc(C4CCNCC4)c(C)c3c2C(C)C)cn(C)c1=O` [Example 250], the EC50 amounted to 0.34 nM in test [1] (setting [3]) and 3.59 nM in test [2] (setting [4]).
For `Cc1c(C2CCNCC2)sc2[nH]c(-c3cc(C)c4nnnn4c3)c(C(C)C)c12` [Example 251] the same measures were 0.13 nM and 8.16 nM.
As to `Cc1c(C2CCNCC2)sc2[nH]c(-c3cc(C)c4nccn4c3)c(C(C)C)c12` [Example 252], the results for the EC50 in test [1] (setting [3]) and in test [2] (setting [4]) were 0.07 nM and 34.2 nM, respectively.
For `Cc1c(-c2[nH]c3sc(C4C[C@@H]5C[C@H]4CC5NC4COC4)c(C)c3c2C(C)C)cn2ncnc2c1C` (stereo partly drawn) [Example 253, N-((1S,4S)-5-(5-(7,8-dimethyl-[1,2,4]triazolo[1,5-a]pyridin-6-yl)-4-isopropyl-3-methyl-6H-thieno[2,3-b]pyrrol-2-yl)bicyclo[2.2.1]heptan-2-yl)oxetan-3-amine] the same measures were 0.1 nM and 1.06 nM.
For `Cc1c(-c2[nH]c3sc(C4C[C@@H]5C[C@H]4CC5N4CC5(C4)CS(=O)(=O)C5)c(C)c3c2C(C)C)cn2ncnc2c1C` (stereo partly shown) [Example 254] the same measures were 0.38 nM and 3.64 nM.

These data come from US11661431B2, “Thienopyrrole compounds” (Gilead Sciences, Inc., priority 2021, dated 2023).
